Measurements reported in patent US20070172815A1 (priority 2000, published 2007).

Legend:
[1] = target: Muscarinic acetylcholine receptor (Homo sapiens, UniProt P20309)
Method: (§1) A HEK-293 cell line (obtained from ATCC, Manassas, Va.) stably expressing the small conductance calcium-activated K^+ channel (SK2) was seeded at ~80% confluence in a 384 well microtiter plate, coated with poly-D-lysine plates, containing 20 μl/well low Cl^− cell growth medium. The cells were allowed to incubate overnight at 37 C in a 5% CO2 incubator.
(§2) The cell-containing plates were removed from the incubator and loaded for approximately 15 min with 2 μM BTC-AM (Molecular Probes, Eugene, Oreg.) dissolved in 20 μL/well Cl^−-free assay buffer containing amaranth and tartrazine (the final concentration in the assay is 2 mM amaranth and 1 mM tartrazine). The AM ester of BTC (BTC-AM) is membrane permeant. As it diffuses across the membrane, it is cleaved by cellular esterases, producing a charged, membrane impermeant dye, BTC. These types of dyes and loading mechanisms are well known to those familiar with the art.
(§3) All data shown were collected using the FLIPR (Molecular Devices, Sunnyvale, Calif). […] 10 seconds of baseline prior to addition of the stimulus buffer.

[2] = target: T1, large conductance calcium-activated K+ channel, Maxi-K (a.k.a. BK, slo) (Homo sapiens, UniProt Q12791); assay: Thallium influx assay (BTC fluorescence) in HEK-293 cells stably transfected with Maxi-K; format: cell-based
T1 construct: expressed in transfected cells
Method: HEK-293 cells were stably transfected with Maxi-K channels. […] The channel opener used was NS-1619 (Sigma-Aldrich, St Louis, Mo.) at a final concentration of 15 μM. The channel blocker used was Iberiotoxin (Sigma-Aldrich, St. Louis, Mo.) at a final concentration of 100 nM.
To detect channel blockers, the assay was started by adding 11 μl of stimulus buffer containing: 15 μM ionomycin, 12.5 Tl2SO4 and 50 mM K2SO4 dissolved in the Cl^−-free assay buffer (Table II) containing 2 mM amaranth and 1 mM tartrazine.
To detect channel openers, the stimulus buffer was identical to the assay conditions of the channel blockers with the exception that 5 μM ionomcyin was used in place of 15 μM ionomycin. Under these conditions the channels were submaximally opened, allowing observation of openers of the channels.

[3] = tested on: native, untransfected HEK cells; assay: Control: BTC fluorescence in native, untransfected HEK cells under identical conditions; format: cell-based, human
Excerpt: A person of ordinary skill in the art will understand that control experiments can be performed to facilitate analysis of the effects of the candidate modulator. Control experiments can be performed using: (1) native, untransfected cells under identical conditions of the methods of the invention; (2) the addition of thallium ions to the test mixture in the absence of stimulus solution; (3) cells under identical conditions of the methods of the invention, but without the candidate modulator of the ion channels, channel-linked receptors or ion transporters added to the test mixture; and/or (4) cells under identical conditions to the methods of the invention, but using known modulators of the ion channels, channel-linked receptors or ion transporters.
(§4) Once loaded, apamin (5 μl/well of 500 nM stock dissolved in Cl^−-free assay buffer (Table II) or an equivalent volume of Cl^−-free assay buffer) was added. The microtiter plates were then transferred to the plate reader, FLIPR. After, or coincident with exposure to apamin or Cl^−-free assay buffer alone, the cells were exposed to 5 μl/well of a stimulus buffer containing 5 μM ionomycin (Calbiochem) and 7.5 mM Tl2SO4 dissolved in Cl^−-free assay buffer containing 2 mM amaranth and 1 mM tartrazine.

[4] = target: T2, non-selective cation channel vanilloid receptor (VR1) (Homo sapiens, UniProt Q8NER1); assay: Thallium influx assay (BTC fluorescence) in CHO cells stably expressing VR1; format: cell-based
T2 construct: expressed in transfected cells
Method: as §1, §2
The microtiter plates were then transferred to the plate reader, FLIPR.
as §3
All experimental conditions for this example were the same as Example II with the following exceptions: • 1. The cell line CHO stably expressing the non-selective cation channel vanilloid receptor (VR1) was used. • 2. The channel antagonist, capsazepine (Sigma-Aldrich, RBI St Louis, Mo.) was applied at a final concentration of 10 μM; and • 3. The assay was started by adding 5 μl of stimulus buffer containing: 1 μM capsaicin and 7.5 mM Tl2SO4 dissolved in a Cl^−-free assay buffer containing 2 mM amaranth and 1 mM tartrazine.

[5] = target: T3, small conductance calcium-activated K+ channel (SK2) (Homo sapiens, UniProt Q9H2S1); assay: Thallium influx assay (BTC fluorescence, FLIPR) in HEK-293 cells stably expressing SK2; format: cell-based; settings: stimulus buffer with 5 μM ionomycin and 7.5 mM Tl2SO4; FIG. 1
T3 construct: expressed in transfected cells
Method: as §4

[6] = target: T3, small conductance calcium-activated K+ channel (SK2); assay: Thallium efflux assay (FluoZin-1 fluorescence) in SK2 expressing HEK-293 cells; format: cell-based; settings: stimulus buffer with 5 μM ionomycin; cells preloaded with thallium; FIG. 5
Method: Instead of loading the cells with 2 μM BTC-AM, the cells were loaded with 2 μM FluoZin-1 (Molecular Probes, Eugene, Oreg.)
After loading the cells with FluoZin-1, the cells were exposed to 10 μl/well of Cl^−-free assay buffer containing 7.5 mM Tl2SO4 for 10 minutes at room temperature. This step loads the cells with thallium which interacts with the thallium ion sensitive fluorescent dye FluoZin-1 and increases its fluorescence.
Following loading the cells with thallium ions, the solution bathing the cells was aspirated off, and replaced with 80 μl/well of Cl^−-free assay buffer.

[7] = target: T4, voltage-gated K+ channel KCNQ2 (Mus musculus, UniProt Q9Z351); assay: Thallium influx assay (BTC fluorescence) in HEK-293 cells stably transfected with KCNQ2; format: cell-based; settings: 15 μM final; thallium ions (5 mM) and K+ (20 mM); FIG. 3A
T4 construct: expressed in transfected cells
Method: as §4
HEK-293 cell line stably transfected with the voltage-gated K^+ channel KCNQ2 was used; • 2. The channel opener used was retigabine (Main, M. J., et al., Mol. Pharmacol., 2000, 58, 253-62) at a final concentration of 15 μM; and • 3. The channel blocker DMP-543 (Zaczek, R., et al., J. Pharmacol. Exp. Ther. 1998, 285, 724-30) used was at a final concentration of 15 μM.
To detect channel blockers the KCNQ2 channels were opened with a combination of thallium ions (5 mM) and K^+ (20 mM). To detect openers the assay was initiated with thallium ions (3 mM).
To detect channel blockers the assay was started by adding 11 μl of stimulus buffer containing: 12.5 mM Tl2SO4 and 50 mM K2SO4 dissolved in the Cl^−-free assay buffer (Table II) containing 2 mM amaranth and 1 mM tartrazine. […]

[8] = Example III (Maxi-K) conditions

T2 sequence (Q8NER1 whole entry): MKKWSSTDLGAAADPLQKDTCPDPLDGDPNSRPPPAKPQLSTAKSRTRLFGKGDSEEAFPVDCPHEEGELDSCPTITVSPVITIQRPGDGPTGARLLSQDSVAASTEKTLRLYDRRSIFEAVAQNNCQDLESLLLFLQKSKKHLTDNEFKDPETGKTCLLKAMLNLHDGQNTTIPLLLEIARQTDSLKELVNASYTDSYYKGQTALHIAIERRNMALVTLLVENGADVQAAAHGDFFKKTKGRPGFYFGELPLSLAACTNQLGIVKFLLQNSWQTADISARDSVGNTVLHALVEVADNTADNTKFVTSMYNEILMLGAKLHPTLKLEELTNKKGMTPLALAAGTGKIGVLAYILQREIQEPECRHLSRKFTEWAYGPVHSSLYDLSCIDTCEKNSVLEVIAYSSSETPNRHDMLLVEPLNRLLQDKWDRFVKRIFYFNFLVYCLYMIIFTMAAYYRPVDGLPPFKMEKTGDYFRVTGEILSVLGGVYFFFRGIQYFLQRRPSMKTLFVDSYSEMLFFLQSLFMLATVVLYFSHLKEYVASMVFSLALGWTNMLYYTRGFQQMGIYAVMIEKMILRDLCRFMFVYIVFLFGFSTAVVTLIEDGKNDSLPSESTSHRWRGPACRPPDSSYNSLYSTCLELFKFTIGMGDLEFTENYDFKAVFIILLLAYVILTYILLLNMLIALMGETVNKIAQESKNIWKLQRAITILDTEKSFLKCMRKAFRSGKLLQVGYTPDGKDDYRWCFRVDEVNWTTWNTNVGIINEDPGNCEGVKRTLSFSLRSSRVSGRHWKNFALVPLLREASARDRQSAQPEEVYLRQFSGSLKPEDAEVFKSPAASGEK
T3 sequence (Q9H2S1 whole entry): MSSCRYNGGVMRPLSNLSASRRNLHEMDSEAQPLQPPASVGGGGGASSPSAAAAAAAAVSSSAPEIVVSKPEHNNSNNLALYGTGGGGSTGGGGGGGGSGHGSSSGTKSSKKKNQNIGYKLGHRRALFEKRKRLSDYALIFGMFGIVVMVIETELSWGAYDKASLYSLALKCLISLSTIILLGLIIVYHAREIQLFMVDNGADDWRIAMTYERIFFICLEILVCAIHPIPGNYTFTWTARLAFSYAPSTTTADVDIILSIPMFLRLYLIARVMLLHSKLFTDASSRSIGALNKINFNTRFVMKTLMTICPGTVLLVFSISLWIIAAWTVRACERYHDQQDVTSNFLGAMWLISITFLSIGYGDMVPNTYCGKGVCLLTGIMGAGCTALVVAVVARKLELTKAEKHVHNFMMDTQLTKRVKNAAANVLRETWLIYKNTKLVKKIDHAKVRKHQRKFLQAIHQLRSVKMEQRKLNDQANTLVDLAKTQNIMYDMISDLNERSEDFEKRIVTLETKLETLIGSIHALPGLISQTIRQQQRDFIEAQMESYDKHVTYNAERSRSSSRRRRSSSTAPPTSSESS
T1 sequence (Q12791 whole entry): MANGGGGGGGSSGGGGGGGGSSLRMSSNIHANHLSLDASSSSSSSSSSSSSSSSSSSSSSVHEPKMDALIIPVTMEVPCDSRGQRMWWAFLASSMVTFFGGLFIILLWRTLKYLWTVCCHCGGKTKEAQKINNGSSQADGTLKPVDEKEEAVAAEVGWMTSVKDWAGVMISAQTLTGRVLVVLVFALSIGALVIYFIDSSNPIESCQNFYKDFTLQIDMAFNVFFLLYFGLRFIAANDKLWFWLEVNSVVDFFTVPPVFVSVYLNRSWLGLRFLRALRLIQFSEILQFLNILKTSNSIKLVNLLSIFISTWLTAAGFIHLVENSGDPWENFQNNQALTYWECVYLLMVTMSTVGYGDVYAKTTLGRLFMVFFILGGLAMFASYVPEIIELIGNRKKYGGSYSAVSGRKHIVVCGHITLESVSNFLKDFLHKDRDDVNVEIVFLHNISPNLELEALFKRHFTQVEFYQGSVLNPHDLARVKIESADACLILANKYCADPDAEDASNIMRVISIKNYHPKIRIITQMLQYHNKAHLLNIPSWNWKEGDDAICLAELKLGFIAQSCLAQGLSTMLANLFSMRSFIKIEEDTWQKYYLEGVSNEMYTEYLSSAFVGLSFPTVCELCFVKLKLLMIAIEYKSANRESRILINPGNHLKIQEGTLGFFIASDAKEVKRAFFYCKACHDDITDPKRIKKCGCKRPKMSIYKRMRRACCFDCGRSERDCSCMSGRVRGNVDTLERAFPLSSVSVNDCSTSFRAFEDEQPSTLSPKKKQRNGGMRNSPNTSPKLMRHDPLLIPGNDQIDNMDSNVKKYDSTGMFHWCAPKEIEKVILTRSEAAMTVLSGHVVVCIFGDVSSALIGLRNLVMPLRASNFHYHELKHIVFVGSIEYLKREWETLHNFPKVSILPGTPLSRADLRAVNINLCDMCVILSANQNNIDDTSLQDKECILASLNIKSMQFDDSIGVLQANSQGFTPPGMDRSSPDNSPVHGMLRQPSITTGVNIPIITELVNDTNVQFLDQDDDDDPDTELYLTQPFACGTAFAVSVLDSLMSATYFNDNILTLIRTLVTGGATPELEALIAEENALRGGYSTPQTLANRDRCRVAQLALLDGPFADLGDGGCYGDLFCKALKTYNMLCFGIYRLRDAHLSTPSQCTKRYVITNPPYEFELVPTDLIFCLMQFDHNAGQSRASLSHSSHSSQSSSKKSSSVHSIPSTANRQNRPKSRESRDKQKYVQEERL
Chain of Muscarinic acetylcholine receptor (P20309 whole entry): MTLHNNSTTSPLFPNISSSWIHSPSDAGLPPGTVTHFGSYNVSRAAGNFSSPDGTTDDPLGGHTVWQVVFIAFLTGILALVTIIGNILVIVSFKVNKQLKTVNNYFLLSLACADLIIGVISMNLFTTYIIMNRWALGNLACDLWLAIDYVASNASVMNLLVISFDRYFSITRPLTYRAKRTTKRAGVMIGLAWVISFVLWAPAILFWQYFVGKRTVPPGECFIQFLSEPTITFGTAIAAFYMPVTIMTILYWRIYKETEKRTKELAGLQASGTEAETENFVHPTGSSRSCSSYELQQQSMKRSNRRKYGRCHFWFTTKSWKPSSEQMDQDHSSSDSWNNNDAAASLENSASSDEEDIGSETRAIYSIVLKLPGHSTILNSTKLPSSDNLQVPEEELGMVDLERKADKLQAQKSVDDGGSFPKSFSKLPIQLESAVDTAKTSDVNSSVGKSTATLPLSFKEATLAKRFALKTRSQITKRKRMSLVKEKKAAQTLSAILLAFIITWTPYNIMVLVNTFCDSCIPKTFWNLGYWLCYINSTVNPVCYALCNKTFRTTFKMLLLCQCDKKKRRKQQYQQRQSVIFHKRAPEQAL
T4 sequence (Q9Z351 whole entry): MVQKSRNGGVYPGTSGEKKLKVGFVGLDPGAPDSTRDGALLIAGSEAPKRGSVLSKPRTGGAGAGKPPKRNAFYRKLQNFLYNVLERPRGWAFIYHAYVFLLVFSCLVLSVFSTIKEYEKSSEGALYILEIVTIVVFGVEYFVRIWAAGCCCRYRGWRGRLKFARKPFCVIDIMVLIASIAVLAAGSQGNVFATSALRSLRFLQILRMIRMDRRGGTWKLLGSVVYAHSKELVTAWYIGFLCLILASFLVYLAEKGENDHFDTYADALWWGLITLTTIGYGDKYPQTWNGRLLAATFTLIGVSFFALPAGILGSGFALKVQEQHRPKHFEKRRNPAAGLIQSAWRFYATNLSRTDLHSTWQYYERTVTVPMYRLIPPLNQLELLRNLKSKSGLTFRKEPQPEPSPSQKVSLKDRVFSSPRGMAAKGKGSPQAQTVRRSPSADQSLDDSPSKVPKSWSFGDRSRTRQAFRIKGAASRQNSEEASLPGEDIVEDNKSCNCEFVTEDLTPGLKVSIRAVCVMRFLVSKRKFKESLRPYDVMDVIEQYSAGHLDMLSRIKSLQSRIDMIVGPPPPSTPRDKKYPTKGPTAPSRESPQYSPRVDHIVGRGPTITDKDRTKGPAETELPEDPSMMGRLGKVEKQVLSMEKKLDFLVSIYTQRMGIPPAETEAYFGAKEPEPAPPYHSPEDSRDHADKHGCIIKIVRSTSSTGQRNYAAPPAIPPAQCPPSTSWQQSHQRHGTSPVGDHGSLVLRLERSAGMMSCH

C[N+](C)(C)CC#CCN1CCCC1=O [oxo-M, oxotremorine-M]
Change in BTC fluorescence upon addition of muscarinic receptor agonist [1]: increase in BTC fluorescence

O=c1[nH]c2cc(C(F)(F)F)ccc2n1-c1cc(C(F)(F)F)ccc1O [NS-1619]
Effect of opener on the thallium-induced increase in BTC fluorescence compared to absence of opener [2]: marked increase
Effect on the fluorescence of BTC loaded into native, untransfected HEK cells [3, 8]: Neither iberiotoxin nor NS-1619 had any effects

COc1cc(CNC(=O)CCCC/C=C/C(C)C)ccc1O [capsaicin]
Effect of compound alone on BTC fluorescence in VR1 expressing CHO cells [4]: small decrease, but no increase
Change in BTC fluorescence upon addition of thallium and agonist ([4]; stimulus buffer with 1 μM capsaicin and 7.5 mM Tl2SO4, FIG. 4): substantial increase

C[C@H](CCC(=O)O)C[C@H](C)C[C@H](C)C(=O)/C=C(\O)[C@H](C)C[C@H](C)C/C=C/[C@@H](C)[C@@H](O)[C@@H](C)[C@@H](O)C[C@@H]1CC[C@@](C)([C@H]2CC[C@@](C)([C@@H](C)O)O2)O1 [ionomycin]
Change in BTC fluorescence upon addition of thallium ions plus ionomycin (activation of SK2) [5]: substantial increase
Change in FluoZin-1 fluorescence upon addition of ionomycin (thallium efflux via activated SK channel) [6]: decrease in fluorescence

Oc1cc2c(cc1O)CN(C(=S)NCCc1ccc(Cl)cc1)CCC2 [capsazepine]
Effect of antagonist on the thallium/capsaicin-induced increase in BTC fluorescence ([4]; 10 μM final, FIG. 4): completely abolished
Effect of compound alone on BTC fluorescence in VR1 expressing CHO cells [4]: no effect

Iberiotoxin (QFTDVDCSVSKECWSVCKDLFGVDRGKCMGKKCRCYQ; UniProt P24663 1-37, looked up)
Effect of blocker on the thallium/ionomycin/potassium-induced increase in BTC fluorescence ([2]; 100 nM final, stimulus buffer with 15 μM ionomycin, FIG. 2A): completely abolished
Effect on the fluorescence of BTC loaded into native, untransfected HEK cells [3, 8]: Neither iberiotoxin nor NS-1619 had any effects

O=C1c2ccccc2C(Cc2ccnc(F)c2)(Cc2ccnc(F)c2)c2ccccc21 [DMP-543]
Effect of blocker on the thallium/potassium-induced increase in BTC fluorescence [7]: completely abolished
Effect on the fluorescence of BTC loaded into native, untransfected HEK cells ([3]; Example IV (KCNQ2) conditions): Neither DMP-543 nor retigabine had any effects
